From patent US20210395327A1, “Growth Hormone-Releasing Hormone Antagonists and Uses Thereof” (United States Government As Represented By The Department …, priority 2019, published 2021)
Non-standard residues stand in square brackets, D forms with d. Residues, ends and D or L forms follow the SMILES beside them. *: point of attachment. Phenylacetyl(2,3,4,5,6-F5) = O=C(Cc1c(F)c(F)c(F)c(F)c1F)*; Phe(F5) = N[C@@H](Cc1c(F)c(F)c(F)c(F)c1F)C(=O)O; Phe(4-Cl) = N[C@@H](Cc1ccc(Cl)cc1)C(=O)O; hArg = N=C(N)NCCCC[C@H](N)C(=O)O; 12Ado = NCCCCCCCCCCCC(=O)O; Nle = CCCC[C@H](N)C(=O)O; Abu = CC[C@H](N)C(=O)O

Key:
[1] = test system: ovarian cancer SK-OV-3 xenograft; assay: Xenograft tumor growth in nude mice, SK-OV-3; assay type: in vivo; settings: Table 4L, Ovarian Ca SK-OV-3, 7 weeks; for % Inhibition: vs control
Procedure: The peptides' activity was compared with GHRH antagonist MIA-602. All statistical analyzses were performed from comparing GHRA antagonists to non-treated tumor (control).
Peptides and chemicals. GHRH antagonists MIA-602 and AVR-GHRH antagonists (see Table 2 above) were synthesized by solid phase methods and purified by HPLC. The peptides were dissolved in DMSO and further diluted in 10% 1,2-propanediol. The final concentration of peptides was 50 µg/ml in 10% 1,2-propanediol containing 0.1% of DMSO.
(§1) Cell culture. Human cancer cell lines including pancreatic (PANC-1 and CFPAC-1), lung (HCC827 and H460), stomach (NCI-N87), prostate (PC3), brest (MX-1 and HCC-1806), colorectal (HT-29), and ovarian (SK-OV-3 and OVCAR-3) were obtained from the American Type Culture Collection (ATCC) and cultured at 37° C. in a humidified 95% air/5% CO2 atmosphere in the medium recommended by ATCC.
Xenograft models of human cancers in nude mice. Female athymic (NCr nu/nu) nude mice, 5- to 6-weeks-old, obtained from the Envigo labs (Tampa, Fla.), were housed in laminar airflow cabinets under pathogen-free conditions with a 12-h light/12-h dark schedule, and were fed autoclaved standard chow and water. To generate mice with xenografted tumors, tumor xenografts were initiated by subcutaneous (s.c.) injection of 107 human cancer cells into female nude mice. After about 4 weeks the resulting tumors were dissected and collected after removing necrosis tissues. The tumors were then cut into particles with size of 3 mm3 and transplanted s.c. by trocar needle into experimental animals. When tumors grew to the size of 50-60 mm3 (by volume), mice were randomized into groups and treated daily for 4-8 weeks by subcutaneous administration of 5 μg of GHRH antagonists MIA-602 or AVR-compounds (2-10 μg as indicated), or vehicle solutions (0.1% DMSO in 10% 1,2-propanediol) respectively. Tumor sizes were measured weekly.
Statistical analysis. One-way ANOVA followed by Bonferroni comparison were performed. Data are expressed as Mean±SEM. To determine statistical significance between animal groups, two-tailed Student's t-test was conducted. Differences were considered significant when p<0.05.
Results. […] FIG. 1A-N represents in vivo inhibition of tumor growth during the treatment with GHRH antagonist MIA-602 and selected AVR antagonists in nude mice xenografted with various human tumors including pancreatic cancer PANC-1 (FIG. 1A) and CFPAC-1 (FIG. 1I); lung cancer HCC827 (FIGS. 1B, C) and H460 (FIG. 1H); stomach cancer N87 (FIGS. 1D-F); colon cancer HT-29 (FIG. 1G); breast cancer MX-1 and HCC-1806 (FIGS. 1J, K); ovarian cancer SK-OV-3 and OVACAR-3 (FIGS. 1 L, M) and prostate cancer PC3 (FIG. 1N). See also Table 5.

[2] = test system: J82 urothelial cancer cells; assay: In vitro cell viability, J82; assay type: cell-based, human; settings: antagonist 5 μM for 72 h, cell proliferation assay; MIA602 = 1
Procedure: (§2) The inhibitory effects of the various synthesized GHRH antagonists were tested in cell proliferation assays in various human cancer cell lines including stomach cancer (KATOIII, N87), colon cancer (HT-29), urothelial cancer (J82, RT4), pancreatic cancer (PANC-1, CFPAC-1), prostatic cancer (PC3), breast cancer (MX-1, HCC1806), ovarian cancer (SK-OV-3, OVCAR-3) and lung cancer (HCC827, H460).
as §1, with “(NCI-N87 and KATOIII), urothelial (J82, RT4), prostatic” for “(NCI-N87), prostate”, “breast” for “brest”, “HCC 1806),” for “HCC-1806),”
(§3) In vitro cell viability. Cell viability was analyzed as follows: cancer cells including pancreatic (PANC-1 and CFPAC-1), lung (HCC827 and H460), stomach (NCI-N87 and KATOIII), urothelial (J82, RT4), prostatic (PC3) and breast (MX-1 and HCC 1806), colorectal (HT-29) and ovarian (SK-OV-3 and OVCAR-3) were grown on 96 well plates to ˜60% confluence, the cells were starved for 24 h in culture medium containing 0.5% FBS. Cells were then treated with GHRH antagonists MIA602 AVR compounds at concentrations of 1, 2.5 or 5 μM, or vehicle (0.1% DMSO) in quintuplicates for 72 hours. The medium was replaced every 48 hours. Cell viability was measured using CellTiter 96 aqueous one solution kit (Promega). Inhibitory effects of tested AVR compounds in comparison to that of MIA602 are presented as inhibitory potency.
(§4) Inhibitory effects of selected AVR compounds in comparison to that of MIA602 are presented as inhibitory potency (e.g., percentage of inhibition). […] The cell lines tested including lung cancer HCC827 (FIG. 2A), pancreatic cancer CFPAC-1 (FIG. 2B), stomach cancer N87 (FIG. 2C), colon cancer HT-29 (FIG. 2D), breast cancers MX-1 and HCC1806 (FIGS. 2 E, F). Based on the results of cell proliferation assay after cancer cells were treated with antagonist at concentration of 5 μM for 72H, the relative inhibitory potency of AVR antagonists in comparison to MIA-602 is summarized in Table 3 A and B. Over 60 AVR compounds were tested in 12 cancer cell lines.

[3] = test system: PANC-1 pancreatic cancer cells; assay: In vitro cell viability, PANC-1; assay type: cell-based, human; settings: antagonist 5 μM for 72 h, cell proliferation assay; MIA602 = 1
Procedure: as §2
as §1, with “(NCI-N87 and KATOIII), urothelial (J82, RT4), prostatic” for “(NCI-N87), prostate”, “breast” for “brest”, “HCC 1806),” for “HCC-1806),”
as §3, §4

[4] = test system: KATOIII stomach cancer cells; assay: In vitro cell viability, KATOIII; assay type: cell-based, human; settings: antagonist 5 μM for 72 h, cell proliferation assay; MIA602 = 1
Method in brief: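 Cells grown to ~60% confluence, serum-starved 24 h in 0.5% FBS, then treated with antagonists at 1, 2.5 or 5 μM or vehicle (0.1% DMSO) in quintuplicate for 72 h, medium replaced every 48 h. Viability read by MTS-type CellTiter 96 AQueous One assay; expressed as inhibitory potency relative to MIA602.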

| SMILES | Tumor Size (mm3) ([1]; 2.5 μg/day s.c.) | % Inhibition ([1]; 2.5 μg/day s.c.) [%] | Tumor Size (mm3) ([1]; 5 μg/day s.c.) | % Inhibition ([1]; 5 μg/day s.c.) [%] | relative inhibitory potency in comparison to MIA-602, Urothelial J82 [2] | relative inhibitory potency in comparison to MIA-602, Pancreatic Panc-1 [3] | relative inhibitory potency in comparison to MIA-602, Stomach KATOIII [4] |
| --- | --- | --- | --- | --- | --- | --- | --- |
| CCCC[C@H](NC(=O)[C@@H](NC(=O)[C@H](CC(=O)O)NC(=O)[C@H](CCC(N)=O)NC(=O)[C@H](CC(C)C)NC(=O)[C@H](CC(C)C)NC(=O)[C@H](CCCCN)NC(=O)[C@H](CCCNC(=N)N)NC(=O)[C@H](C)NC(=O)[C@H](CO)NC(=O)[C@H](CC(C)C)NC(=O)[C@H](CCC(N)=O)NC(=O)[C@H](CC)NC(=O)[C@H](CC(C)C)NC(=O)[C@@H](NC(=O)[C@H](CCCCN)NC(=O)[C@H](CCCNC(=N)N)NC(=O)[C@H](Cc1ccc(OC)cc1)NC(=O)[C@H](CCCCNC(=N)N)NC(=O)[C@H](C)NC(=O)[C@@H](NC(=O)[C@H](Cc1c(F)c(F)c(F)c(F)c1F)NC(=O)[C@@H](NC(=O)[C@H](C)NC(=O)[C@H](CC(=O)O)NC(=O)[C@@H](CCCNC(=N)N)NC(=O)[C@H](Cc1ccc(O)cc1)NC(=O)CCCCCCCCCCCNC(=O)Cc1c(F)c(F)c(F)c(F)c1F)[C@@H](C)CC)[C@@H](C)O)C(C)C)[C@@H](C)CC)C(=O)N[C@H](CCCNC(=N)N)C(=O)N[C@@H](CCCCNC(=N)N)C(=O)NCCCCCCCCCCCC(N)=O [AVR-352, 5FPhAC-Ada-Tyr-DArg-Asp-Ala-Ile-5FPhe-Thr-Ala-Har-Tyr(Me)-Arg-Lys-Val-Leu-Abu-Gln-Leu-Ser-Ala-Arg-Lys-Leu-Leu-Gln-Asp-Ile-Nle-DArg-Har-Ada-NH2] ({Phenylacetyl(2,3,4,5,6-F5)-12Ado}-Y[dR]DAI[Phe(F5)]TA[hArg]Y(Me)RKVL[Abu]QLSARKLLQDI[Nle][dR][hArg][12Ado]-NH2) | 718.4 | 45.0 | 422.3 | 67.7 |  |  |  |
| CCCC[C@H](NC(=O)[C@@H](NC(=O)[C@H](CC(=O)O)NC(=O)[C@H](CCC(N)=O)NC(=O)[C@H](CC(C)C)NC(=O)[C@H](CC(C)C)NC(=O)[C@H](CCCCN)NC(=O)[C@H](CCCNC(=N)N)NC(=O)[C@H](C)NC(=O)[C@H](CO)NC(=O)[C@H](CC(C)C)NC(=O)[C@H](CCC(N)=O)NC(=O)[C@H](CC)NC(=O)[C@H](CC(C)C)NC(=O)[C@@H](NC(=O)[C@H](CCCCN)NC(=O)[C@H](CCCNC(=N)N)NC(=O)[C@H](Cc1ccc(OC)cc1)NC(=O)[C@H](CCCCNC(=N)N)NC(=O)[C@H](C)NC(=O)[C@@H](NC(=O)[C@H](Cc1c(F)c(F)c(F)c(F)c1F)NC(=O)[C@@H](NC(=O)[C@H](C)NC(=O)[C@H](CC(=O)O)NC(=O)[C@@H](CCCNC(=N)N)NC(=O)[C@H](Cc1ccc(O)cc1)NC(=O)CCCCCCCCCCCNC(=O)Cc1c(F)c(F)c(F)c(F)c1F)[C@@H](C)CC)[C@@H](C)O)C(C)C)[C@@H](C)CC)C(=O)N[C@H](CCCNC(=N)N)C(=O)N[C@@H](CCCCNC(=N)N)C(=O)NC [AVR-235] ({Phenylacetyl(2,3,4,5,6-F5)-12Ado}-Y[dR]DAI[Phe(F5)]TA[hArg]Y(Me)RKVL[Abu]QLSARKLLQDI[Nle][dR][hArg]-NHMe) |  |  |  |  | 1.518 | 1.139 | 1.220 |
| CCCC[C@H](NC(=O)[C@@H](NC(=O)[C@H](CC(=O)O)NC(=O)[C@H](CCC(N)=O)NC(=O)[C@H](CC(C)C)NC(=O)[C@H](CC(C)C)NC(=O)[C@H](CCCCN)NC(=O)[C@H](CCCNC(=N)N)NC(=O)[C@H](C)NC(=O)[C@H](CO)NC(=O)[C@H](CC(C)C)NC(=O)[C@H](CCC(N)=O)NC(=O)[C@H](CC)NC(=O)[C@H](CC(C)C)NC(=O)[C@@H](NC(=O)[C@H](CCCCN)NC(=O)[C@H](CCCNC(=N)N)NC(=O)[C@H](Cc1c(F)c(F)c(F)c(F)c1F)NC(=O)[C@H](CCCCNC(=N)N)NC(=O)[C@H](C)NC(=O)[C@@H](NC(=O)[C@H](Cc1ccc(Cl)cc1)NC(=O)[C@@H](NC(=O)[C@H](C)NC(=O)[C@H](CC(=O)O)NC(=O)[C@@H](CCCNC(=N)N)NC(=O)[C@H](Cc1ccc(O)cc1)NC(=O)CCCCCCCCCCCNC(=O)Cc1c(F)c(F)c(F)c(F)c1F)[C@@H](C)CC)[C@@H](C)O)C(C)C)[C@@H](C)CC)C(=O)N[C@H](CCCNC(=N)N)C(=O)N[C@@H](CCCCNC(=N)N)C(=O)NCCCCCCCCCCCC(N)=O [AVR-353, 5FPhAC-Ada-Tyr-DArg-Asp-Ala-Ile-Cpa-Thr-Ala-Har-5FPhe-Arg-Lys-Val-Leu-Abu-Gln-Leu-Ser-Ala-Arg-Lys-Leu-Leu-Gln-Asp-Ile-Nle-DArg-Har-Ada-NH2] ({Phenylacetyl(2,3,4,5,6-F5)-12Ado}-Y[dR]DAI[Phe(4-Cl)]TA[hArg][Phe(F5)]RKVL[Abu]QLSARKLLQDI[Nle][dR][hArg][12Ado]-NH2) | 1056.0 | 19.1 | 910.7 | 30.9 |  |  |  |
